Assay results reported in patent US20260053811A1, “METHODS OF TREATING HYPERTENSION IN OBESE SUBJECTS” (Mineralys Therapeutics, Inc., priority 2022, published 2026).
Marks after values point to notes of the source that are not given here.

Legend:
hypertensive subjects = assay: Serum potassium; assay type: in vivo, human; settings: for Increase in potassium levels relative to baseline: Week 8; for Individuals with increased serum K+, Mild 5.6-6.0 mMol/L (number) / Individuals with increased serum K+, Mild 5.6-6.0 mMol/L (percent) / Individuals with increased serum K+, Moderate 6.1-6.5 mMol/L / Individuals with increased serum K+, Severe >6.5 mMol/L: during treatment
From the text: Safety endpoints of this study are: • (a) Incidence and severity of all spontaneously reported adverse events (AEs) • (b) Changes in vital signs (standing SBP, standing DBP, body temperature, heart rate, and respiratory rate) • (c) Changes in electrocardiogram parameters (including cardiac intervals: PR, QRS, QT, and corrected QT interval using Fridericia's formula) • (d) Changes in clinical laboratory assessments (hematology, chemistry, coagulation, and urinalysis) • (e) Change in office-measured SBP from Study Week 8 (end-of-treatment period to end of follow up (i.e. end of Study Week 12 for Part 1 and end of Study 10 for Part 2).
The Safety Analysis Set includes all enrolled subjects who received at least one dose of study treatment (MLS-101 or placebo). In analyses performed on the Safety Analysis Set, subjects will be analyzed according to their actual treatment received.

11-deoxycorticosterone = assay: Serum 11-deoxycorticosterone (pharmacodynamic response); assay type: in vivo, human; settings: for 11-Deoxycorticosterone, Mean (SD) Observed / 11-Deoxycorticosterone, Mean (SD) Percent Change from Baseline: Part 1; for 11-Deoxycorticosterone, Mean Observed / 11-Deoxycorticosterone, Mean Percent Change from Baseline: Part 2
From the text: PK/PD Analysis Set includes all subjects in the SAF who have sufficient data available for the analysis of pharmacokinetic and pharmacodynamic measurements. In the analyses based on PKPD, subjects will be analyzed according to the actual treatment received.

For `CC(=O)N[C@H]1CC[C@H](NC(=O)CN2CCN(c3nncc(-c4ccc(C)cc4)n3)CC2)CC1` [Compound A HBr], the “Increase in potassium levels relative to baseline” value (hypertensive subjects; 25 mg BID, Part 1) was 0.341 mmol/L, the “Serum K+ Mean Change from Baseline to Wk 8” value (hypertensive subjects; 50 mg QD (n = 28)) was “+0.25 mmol/L” and the “Individuals with increased serum K+, Mild 5.6-6.0 mMol/L (number)” value (hypertensive subjects; 50 mg QD (n = 28)) was 1. The “Individuals with increased serum K+, Mild 5.6-6.0 mMol/L (percent)” value (hypertensive subjects; 50 mg QD (n = 28)) was “(10.7%)”, the “Individuals with increased serum K+, Moderate 6.1-6.5 mMol/L” value (hypertensive subjects; 50 mg QD (n = 28)) was 0 and the “Serum K+ Mean Change from Baseline to Wk 8” value (hypertensive subjects; 100 mg QD (n = 61)) was “+0.29 mmol/L”. For the same molecule, the “Individuals with increased serum K+, Mild 5.6-6.0 mMol/L (number)” value (hypertensive subjects; 100 mg QD (n = 61)) was 8, the “Individuals with increased serum K+, Mild 5.6-6.0 mMol/L (percent)” value (hypertensive subjects; 100 mg QD (n = 61)) was “(13.1%)” and the “Individuals with increased serum K+, Moderate 6.1-6.5 mMol/L” value (hypertensive subjects; 100 mg QD (n = 61)) was 1 (1.6%). For the same molecule, the “Individuals with increased serum K+, Severe >6.5 mMol/L” value (hypertensive subjects; 100 mg QD (n = 61)) was 1 (1.6%), the “Number of individuals with verified or multiple increased serum K+ 5.2-5.5 mMol/L” value (hypertensive subjects; 100 mg QD, Part 1) was 5 and the “Number of individuals with verified or multiple increased serum K+ 5.6-6.0 mMol/L” value (hypertensive subjects; 100 mg QD, Part 1) was 3. The “Number of individuals with verified or multiple increased serum K+ 6.1-6.5 mMol/L” value (hypertensive subjects; 100 mg QD, Part 1) was 0, the “Percent of individuals with verified or multiple increased serum K+ 5.2-5.5 mMol/L” value (hypertensive subjects; 100 mg QD, Part 1) was “(18.5%)” and the “Percent of individuals with verified or multiple increased serum K+ 5.6-6.0 mMol/L” value (hypertensive subjects; 100 mg QD, Part 1) was “(10.7%)”. For the same molecule, the “Number of individuals with increased serum K+ >6.5 mMol/L” value (hypertensive subjects; 100 mg QD, Part 1, isolated incident not verified by repeat measurement) was 1*, the “Number of individuals with verified or multiple increased serum K+ 5.2-5.5 mMol/L” value (hypertensive subjects; 100 mg QD, Part 2) was 1 and the “Number of individuals with verified or multiple increased serum K+ 5.6-6.0 mMol/L” value (hypertensive subjects; 100 mg QD, Part 2) was 0. The “Number of individuals with verified or multiple increased serum K+ 6.1-6.5 mMol/L” value (hypertensive subjects; 100 mg QD, Part 2) was 0, the “Number of individuals with verified or multiple increased serum K+ >6.5 mMol/L” value (hypertensive subjects; 100 mg QD, Part 2) was 0 and the “Percent of individuals with verified or multiple increased serum K+ 5.2-5.5 mMol/L” value (hypertensive subjects; 100 mg QD, Part 2) was “(4%)”. The “Increase in potassium levels relative to baseline” value (hypertensive subjects; 100 mg QD, Part 2) was 0.208 mmol/L, the “Number of individuals with verified or multiple increased serum K+ 5.2-5.5 mMol/L” value (hypertensive subjects; 100 mg QD, Pooled) was 6 and the “Number of individuals with verified or multiple increased serum K+ 5.6-6.0 mMol/L” value (hypertensive subjects; 100 mg QD, Pooled) was 3. For the same molecule, the “Number of individuals with verified or multiple increased serum K+ 6.1-6.5 mMol/L” value (hypertensive subjects; 100 mg QD, Pooled) was 0, the “Number of individuals with verified or multiple increased serum K+ >6.5 mMol/L” value (hypertensive subjects; 100 mg QD, Pooled) was 0 and the “Percent of individuals with verified or multiple increased serum K+ 5.2-5.5 mMol/L” value (hypertensive subjects; 100 mg QD, Pooled) was “(10.3%)”. For the same molecule, the “Percent of individuals with verified or multiple increased serum K+ 5.6-6.0 mMol/L” value (hypertensive subjects; 100 mg QD, Pooled) was “(5.2%)”, the “Individuals with increased serum K+, Mild 5.6-6.0 mMol/L (number)” value (hypertensive subjects; All Active (n = 163)) was 16 and the “Individuals with increased serum K+, Mild 5.6-6.0 mMol/L (percent)” value (hypertensive subjects; All Active (n = 163)) was “(9.8%)”. The “Individuals with increased serum K+, Moderate 6.1-6.5 mMol/L” value (hypertensive subjects; All Active (n = 163)) was 4 (2.5%), the “Individuals with increased serum K+, Severe >6.5 mMol/L” value (hypertensive subjects; All Active (n = 163)) was 2* and the “Change in group mean serum potassium (K+), Mean” value (“Change … (K+), Mean” below) (hypertensive subjects; Part 1 (N 26)) was “+0.50 mMol/L”. The “Change … (K+), Mean” value (hypertensive subjects; Part 1, N 26*) was “+0.50 mMol/L”, the “Change … (K+), Mean” value (hypertensive subjects; Part 2 (N 31)) was “+0.23 mMol/L” and the “Change … (K+), Mean” value (hypertensive subjects; Part 2, N 31) was “+0.23 mMol/L”. The “Subjects with transient elevated serum potassium greater than 6.0 mmol/L” value (hypertensive subjects; Parts 1 and 2, listed as lorundrostat) was “seven”, the “Change … (K+), Mean” value (hypertensive subjects; Pooled (N 57)) was “+0.35 mMol/L” and the “Change … (K+), Mean” value (hypertensive subjects; Pooled, N 57) was “+0.35 mMol/L”. For the same molecule, the “Serum potassium levels compared with placebo” value (hypertensive subjects; active treatment cohorts, Parts 1 and 2) was “increased”, the “11-Deoxycorticosterone, Mean (SD) Observed” value (11-deoxycorticosterone; Wk 4, 12.5 mg BID) was 9.0 (3.0) ng/dL and the “11-Deoxycorticosterone, Mean (SD) Percent Change from Baseline” value (11-deoxycorticosterone; Wk 4, 12.5 mg BID) was 12.50 (37.50) %. For the same molecule, the “11-Deoxycorticosterone, Mean (SD) Observed” value (11-deoxycorticosterone; Wk 4, 12.5 mg QD) was 11.1 (5.5) ng/dL, the “11-Deoxycorticosterone, Mean (SD) Percent Change from Baseline” value (11-deoxycorticosterone; Wk 4, 12.5 mg QD) was 31.41 (60.95) % and the “11-Deoxycorticosterone, Mean (SD) Observed” value (11-deoxycorticosterone; Wk 4, 25 mg BID) was 13.7 (13.9) ng/dL. For the same molecule, the “11-Deoxycorticosterone, Mean (SD) Percent Change from Baseline” value (11-deoxycorticosterone; Wk 4, 25 mg BID) was 71.63 (173.69) %, the “11-Deoxycorticosterone, Mean (SD) Observed” value (11-deoxycorticosterone; Wk 4, 50 mg QD) was 8.0 (0.0) ng/dL and the “11-Deoxycorticosterone, Mean (SD) Percent Change from Baseline” value (11-deoxycorticosterone; Wk 4, 50 mg QD) was −2.66 (9.61) %. For the same molecule, the “11-Deoxycorticosterone, Mean (SD) Observed” value (11-deoxycorticosterone; Wk 4, 100 mg QD) was 9.5 (5.2) ng/dL, the “11-Deoxycorticosterone, Mean (SD) Percent Change from Baseline” value (11-deoxycorticosterone; Wk 4, 100 mg QD) was 16.18 (66.37) % and the “11-Deoxycorticosterone, Mean (SD) Observed” value (11-deoxycorticosterone; Wk 12, 12.5 mg BID) was 8.0 (0.0) ng/dL. For the same molecule, the “11-Deoxycorticosterone, Mean (SD) Percent Change from Baseline” value (11-deoxycorticosterone; Wk 12, 12.5 mg BID) was 0.00 (0.00) %, the “11-Deoxycorticosterone, Mean (SD) Observed” value (11-deoxycorticosterone; Wk 12, 12.5 mg QD) was 9.2 (4.9) ng/dL and the “11-Deoxycorticosterone, Mean (SD) Percent Change from Baseline” value (11-deoxycorticosterone; Wk 12, 12.5 mg QD) was 11.96 (62.37) %. For the same molecule, the “11-Deoxycorticosterone, Mean (SD) Observed” value (11-deoxycorticosterone; Wk 12, 25 mg BID) was 8.0 (0.0) ng/dL, the “11-Deoxycorticosterone, Mean (SD) Percent Change from Baseline” value (11-deoxycorticosterone; Wk 12, 25 mg BID) was 0.00 (0.00) % and the “11-Deoxycorticosterone, Mean (SD) Observed” value (11-deoxycorticosterone; Wk 12, 50 mg QD) was 8.5 (2.4) ng/dL. For the same molecule, the “11-Deoxycorticosterone, Mean (SD) Percent Change from Baseline” value (11-deoxycorticosterone; Wk 12, 50 mg QD) was 3.01 (31.53) %, the “11-Deoxycorticosterone, Mean (SD) Observed” value (11-deoxycorticosterone; Wk 12, 100 mg QD) was 8.4 (2.0) ng/dL and the “11-Deoxycorticosterone, Mean (SD) Percent Change from Baseline” value (11-deoxycorticosterone; Wk 12, 100 mg QD) was 2.80 (28.58) %. The “11-deoxycorticosterone compared with placebo” value (11-deoxycorticosterone; Part 1 active treatment arms, Week 4) was “Transient increases”, the “11-Deoxycorticosterone, Mean Observed” value (11-deoxycorticosterone; Wk 4, 100 mg QD) was 10.28 ng/dL and the “11-Deoxycorticosterone, Mean Percent Change from Baseline” value (11-deoxycorticosterone; Wk 4, 100 mg QD) was 6.02%. The “11-Deoxycorticosterone, Mean Observed” value (11-deoxycorticosterone; Wk 10, 100 mg QD) was 8.00 ng/dL, the “11-Deoxycorticosterone, Mean Percent Change from Baseline” value (11-deoxycorticosterone; Wk 10, 100 mg QD) was −8.78% and the 11-deoxycorticosterone levels (11-deoxycorticosterone; summary of trial) was “unaffected”.
